Data taken from article PMC7823712, “Synthesis and Antiplasmodial Activity of Novel Bioinspired Imidazolidinedione Derivatives” (Biomolecules, 2020).
In brackets after ≈: the same amount, converted by molar mass. Several values for one entry are separate records, joined by “and”; a condition that tells them apart may be missing. Equal entries are not always repeated. Where two headings read alike, the source gives them in different places.

Tests used:
[1] = system: P. falciparum D10 (CQ-sensitive) strain; test: P. falciparum drug susceptibility assay (pLDH), D10 strain; format: cell-based, Plasmodium falciparum; details: for IC50: Plasmodium falciparum, read-out: P. falciparum IC50 D10; for SI D10: SI = IC50 HaCaT/IC50 P. falciparum strain
Experimental: Plasmodium falciparum cultures were carried out according to Trager and Jensen, with slight modifications. […] Drugs were placed in 96-well flat-bottomed microplates starting from the concentration of 20 µg/mL and 8 serial two-fold dilutions were made. […] Parasite growth was determined spectrophotometrically (OD650) by measuring the activity of the parasite lactate dehydrogenase (pLDH), according to a modified version of the method of Makler in control and drug-treated cultures.

[2] = Hemolysis assay; format: cell-based; details: human erythrocyte suspension, fresh human erythrocytes
Experimental: The study protocol was approved by the Bioethics Commission at the Lower Silesian Medical Chamber (1/PNHAB/2018). Hemolytic activity was estimated by the measurement of hemoglobin release from human erythrocyte suspensions after incubation with (5), (6), (7) and (8), as previously described. Compouds dissolved in DMSO were added in a volume corresponding to a final concentration of 20 µg/mL in the sample (DMSO was added in an identical volume). Negative and positive controls were also determined. Hemolysis (H) was calculated according to the following formula:H (%) = [(Asample − Anegative control)/(Apositive control − Anegative control)] × 100(1) where Asample, Anegative control, and Apositive control represent the absorbances of the sample, and negative (erythrocytes in PBS buffer) and positive (erythrocytes in distilled water) controls, respectively.

[3] = system: HaCaT cells; test: Cytotoxicity assay (MTT) on HaCaT cells; format: cell-based; details: Homo sapiens, 48 h
Experimental: HaCaT cells were cultured in DMEM medium with 10% FBS, GlutaMAX™ and antibiotic-antimycotic. Cells were cultured at 37 °C in a humidified atmosphere containing 5% CO2. To evaluate the cytotoxic activity of tested compounds, the MTT assay was used. Cells (5 × 10^3 cells/well) were plated into a 96-multiwell plate and incubated for 24 h, to grow as monolayers. Subsequently, different doses of compounds dissolved in DMSO were added to each well and mixed. Plates were then incubated for 48 h. The culture media with tested samples were then removed, and cells in each well were treated with 50 μL of complete culture medium with MTT. After 4 h of incubation in a cell culture incubator, MTT solution was replaced with DMSO (50 μL/well) and plates were agitated for 5 min to dissolve the formazan salts. Formazan absorbance was measured at 570 nm, with background measured at 630 nm, using an Asys UVM 340 Microplate Reader (Cambridge, UK). Results were expressed as IC50 values, with respect to the control (not treated cells).

[4] = system: P. falciparum W2 (CQ-resistant) strain; test: P. falciparum drug susceptibility assay (pLDH), W2 strain; format: cell-based, Plasmodium falciparum; details: for IC50: Plasmodium falciparum, read-out: P. falciparum IC50 W2; for RI: RI = IC50 CQ resistant P. falciparum strain/IC50 CQ sensitive P. falciparum strain; for SI W2: SI = IC50 HaCaT/IC50 P. falciparum strain
Experimental: Plasmodium falciparum cultures were carried out according to Trager and Jensen, with slight modifications. The CQ-susceptible strain D10 and the CQ-resistant strain W2 were maintained at 5% hematocrit (human type A-positive red blood cells) in RPMI 1640 (EuroClone, Milan, Italy) medium with the addition of 1% AlbuMax (Invitrogen, Milan, Italy), 0.01% hypoxanthine, 20 mM Hepes, and 2 mM glutamine. All the cultures were maintained at 37 °C in a standard gas mixture consisting of 1% O2, 5% CO2, and 94% N2. Compounds were dissolved in DMSO and then diluted with medium to achieve the required concentrations (final DMSO concentration < 1%, which is non-toxic to the parasite). Drugs were placed in 96-well flat-bottomed microplates starting from the concentration of 20 µg/mL and 8 serial two-fold dilutions were made. Asynchronous cultures with parasitaemia of 1–1.5% and 1% final hematocrit were aliquoted into the plates and incubated for 72 h at 37 °C. Parasite growth was determined spectrophotometrically (OD650) by measuring the activity of the parasite lactate dehydrogenase (pLDH), according to a modified version of the method of Makler in control and drug-treated cultures. The antimalarial activity is expressed as 50% inhibitory concentrations (IC50); […]

[5] = Solubility in water; format: physicochemical; details: statement in words
[6] = system: Plasmodium falciparum 3D7; design: method as in PMID 25797165; details: read-out: IC50 against Plasmodium falciparum 3D7; cited from earlier work
[7] = system: chloroquine-resistant Dd2 strain; design: method as in PMID 25797165; details: compared with 3D7; cited from earlier work
[8] = system: W2 strain; design: method as in PMID 16190773; details: cited from earlier work
[9] = system: FcM29-Cameroon, a high chloroquine-resistant strain of P. falciparum; design: method as in PMID 21612900; details: cited from earlier work
[10] = D10 (CQ-sensitive), 72 h, pLDH, IC50 expressed in µM
[11] = W2 (CQ-resistant), 72 h, pLDH, IC50 expressed in µM

Row | SMILES | IC50 [1, 10] [µM] | IC50 ([1]; D10 (CQ-sensitive), 72 h, pLDH) [µg/mL] | SI D10 [1] | IC50 [3] [µg/mL] | IC50 ([3]; IC50 expressed in µM) [µM] | IC50 [4, 11] [µM] | IC50 ([4]; W2 (CQ-resistant), 72 h, pLDH) [µg/mL] | RI [4] | SI W2 [4] | other results
1 | O=C1NC2(CCCc3ccccc32)C(=O)N1CCCCCN1CCN(c2nc3ccccc3[nH]2)CC1 (racemic) [Compound (5), (R,S)-1-(5-(4-(1H-Benzo[d]imidazol-2-yl)piperazin-1-yl)pentyl)-3′,4′-dihydro-2′H-spiro[imidazolidine-4,1′-naphthalene]-2,5-dione] | 12.75 ± 0.02 | 6.2 ± 0.892 | 3.26 | 20.2 | 41.6 ± 2.43 | 4.98 ± 0.52 | 2.42 ± 0.255 | 0.39 | 8.34 | hemolysis at 30 min, 20 µg/mL [2]: 5.6%; solubility in water [5]: low solubility in water
2 | O=C1NC2(CCc3ccccc32)C(=O)N1CCCCCN1CCN(C2Cc3ccccc3C2)CC1 (racemic) [(8), (R,S)-1-(5-(4-(2,3-Dihydro-1H-inden-2-yl)piperazin-1-yl)pentyl)-2′,3′-dihydrospiro[imidazolidine-4,1′-indene]-2,5-dione] | – | > 10 | – | 22.7 | 48.1 ± 2.49 | 12 ± 4.12 | 5.65 ± 1.95 | – | 4.02 | –
3 | CCN1C(=O)N(CCC(C)C)C2(CCN(Cc3cc(Cl)c(Cl)cc3O)CC2)C1=O [CWHM-505] | – | – | – | – | – | – | – | – | – | IC50 [6]: 99 nM
4 | CCN1C(=O)N(CCC(C)C)C2(CCN(Cc3cc(Cl)ccc3O)CC2)C1=O [CWHM-123, 8-(5-chloro-2-hydroxybenzyl)-3-ethyl-1-isopentyl-1,3,8-triazaspiro[4.5]decane-2,4-dione] | – | – | – | – | – | – | – | – | – | IC50 [6]: 310 nM; potency on the chloroquine-resistant Dd2 strain [7]: equivalent potency
5 | CC(C)C1C(=O)C(=O)N/C1=N/C(=N)Nc1ccc(Cl)c(Cl)c1 (stereo not shown) [WR182393] | – | – | – | – | – | – | – | – | – | IC50 for W2 [8]: 2664.69 ng/mL
6 | CN1C(=N)N(C)/C(=C/c2c[nH]c3ccccc23)C1=O [Aplysinopsin] | – | – | – | – | – | – | – | – | – | IC50 against FcM29-Cameroon [9]: 430 ng/mL (≈ 1.69 µM); IC50 ([9]; read-out: IC50 against FcM29-Cameroon): 1690 nM
7 | CCN(CC)CCCC(C)Nc1ccnc2cc(Cl)ccc12 (stereo not shown) [CQ, Chloroquine, reference compound] | – | – | – | – | – | – | – | – | – | IC50 ([1]; D10, 72 h): 0.00764 µg/mL and 10 nM; IC50 ([4]; W2, 72 h): 0.103 µg/mL and 200 nM
8 | O=C1NC2(CCCc3ccccc32)C(=O)N1CCCCCN1CCN(C2Cc3ccccc3C2)CC1 (racemic) [(7), (R,S)-1-(5-(4-(2,3-Dihydro-1H-inden-2-yl)piperazin-1-yl)pentyl)-3′,4′-dihydro-2′H-spiro[imidazolidine-4,1′-naphthalene]-2,5-dione] | 19.9 ± 0.29 | 9.66 ± 0.141 | 3.16 | 30.5 | 62.8 ± 2.12 | 8.93 ± 1.35 | 4.35 ± 0.659 | 0.45 | 7.02 | –
9 | O=C1NC2(CCc3ccccc32)C(=O)N1CCCCCN1CCN(c2nc3ccccc3[nH]2)CC1 (racemic) [(6), (R,S)-1-(5-(4-(1H-Benzo[d]imidazol-2-yl)piperazin-1-yl)pentyl)-2′,3′-dihydrospiro[imidazolidine-4,1′-indene]-2,5-dione] | 17.5 ± 1.55 | 8.27 ± 0.737 | 3.31 | 27.4 | 58 ± 1.48 | 10.1 ± 0.2 | 4.78 ± 0.0974 | 0.58 | 5.73 | –
